Results as given in US9249135B2, “Therapeutic agent for mood disorders” (KYOWA HAKKO KIRIN CO., LTD., priority 2009, dated 2016).

What was measured:
mice = assay: Forced swim test in mice; type: in vivo, mouse (male ddY-strain)
Excerpt: The forced swim test in rats and mice is widely used for test system which evaluates antidepressant activities (Arch. Int. Pharmacodyn. Ther. 229, p.327 (1977)). The forced swim test is means for evaluating depressive state using the length of time during which the animal ceases its escape behavior due to a sense of helplessness (immobility time) as an index thereof by placing a mouse or a rat in water in an inescapable cylinder. Since immobility time is shortened by existing antidepressants, this is known as an animal model of depression. The male ddY-strain mice (20 to 29 g; Japan SLC, Inc.) were used in this study. A transparent acrylic water bath 10 cm in diameter and 25 cm in height was filled with water at 23° C.±1° C. to a depth of 10 cm. Each mouse was slowly placed in the water bath. At 2 minutes after placement in the bath, immobility time (duration during which no escape behavior was observed) was measured for 4 minutes. The test compound was used for the test in suspension in distilled water for injection (manufactured by Otsuka Pharmaceutical Co.,) containing 0.5 w/v % MC (methylcellulose). […] The antidepressant activity of the test compound was evaluated with the immobility time for the vehicle control group and that for the test compound dose group as indexes. […]

rats [1] = assay: Forced swim test in rats; type: in vivo, rat (male SD-strain)
Excerpt: The forced swim test in rats and mice is widely used for test system which evaluates antidepressant activities (Arch. Int. Pharmacodyn. Ther. 229, p.327 (1977)). The forced swim test is means for evaluating depressive state using the length of time during which the animal ceases its escape behavior due to a sense of helplessness (immobility time) as an index thereof by placing a mouse or a rat in water in an inescapable cylinder. Since immobility time is shortened by existing antidepressants, this is known as an animal model of depression. The male SD-strain rats (200 to 270 g; Charles River Japan Inc.) were used in this study. A transparent acrylic water bath 18 cm in diameter and 40 cm in height was filled with water at 25° C.±1° C. to a depth of 19 cm. Each rat was slowly placed in the water bath, allowed to stand for 15 minutes, then removed from the bath and dried with a piece of paper towel. The animals were then dried under a table light for 15 minutes and returned to the respective cages (induction of pathological condition). On the following day, the rats were slowly placed in the same water bath. Immediately, immobility time was measured for 5 minutes. […] The antidepressive action of the test compound was evaluated with the immobility time for the vehicle control group and that for the test compound dose group as indexes. […]

rats [2] = assay: Learned helplessness model of depression in rats; type: in vivo, rat (male SD)
Excerpt: From the effects of existing antidepressants and the like on this system, this test is deemed a higher level animal model in rodents.
The male SD rats (190 to 260 g; Charles River Japan Inc.) were used in this study. On Day 1 of experiment, a partition board was placed in the center of the shuttle box to create two compartments so that the animals could not move from one compartment to another (220×200×260 mm). In each compartment, one rat was placed. The animals were retained in the shuttle box for 50 minutes and exposed to electrical shocks (IES) given via stainless floor grids with the light on. […]
On Day 2 of experiment, the partition board in the center of the shuttle box was removed and replaced by a hurdle 2 cm in height to create two comportments so that the animals could move from one compartment to another. […] Animal's behavior was evaluated according to the following procedures.
FR1: A buzzer was activated for 10 seconds. […] This procedure counted as one trial, and was continuously repeated 15 times.
FR2: Electric stimuli (0.5 mA) were applied for 10 seconds to a rat via the floor grids in the compartment where the animal stayed. […] This procedure counted as one trial, and was continuously repeated 15 times. […]

## Cc1ccc(C(=O)Nc2nc(-c3ccco3)c(C(=O)C3CCOCC3)s2)cn1 [(IC)]
mice; mice, 0.1 mg/kg orally 1 hour before the test, measured for 4 minutes, vehicle 179.0 ± 15.2
  immobility time: 53.1 ± 11.0 s
mice; mouse, in words
  immobility time compared with that for the vehicle control group: shortened
Rats [1]; rat, in words
  immobility time compared with that for the vehicle control group: shortened
Rats [1]; rats, 0.1 mg/kg orally 1 hour before the test, measured for 5 minutes, vehicle 204.0 ± 21.0
  immobility time: 81.5 ± 15.1 s
Rats [2]; rats with IES loading, FR2 session, dose of 0.3 mg/kg orally 1 hour before the FR1 session
  escape rate (escape response %): 88.7±6.7%
Rats [2]; rats, single oral dose, in words
  action on the escape rate reductions by IES loading in the FR2 session: significant ameliorating action
